Source: patent publication US9085587B2, “Inhibitors of hepatitis C virus” (priority 2010, dated 2015)

Tests used:
Type in all cases: cell-based
[1] = test system: HCV 1b replication (bicistronic genotype 1b replicon in Huh 7 cells); experiment: HCV 1b replicon assay (1b_Huh-Luc/Neo-ET cell line, luciferase readout); conditions: Hepatitis C virus, Huh-7; numeric EC50; genotype 1b replicon; read-out: Inhibition of HCV genotype 1b replicon (EC50)
Experimental: Biological activity of the compounds of the invention was determined using an HCV replicon assay. The 1b_Huh-Luc/Neo-ET cell line persistently expressing a bicistronic genotype 1b replicon in Huh 7 cells was obtained from ReBLikon GMBH. This cell line was used to test compound inhibition using luciferase enzyme activity readout as a measurement of compound inhibition of replicon levels.
On Day 1 (the day after plating), each compound was added in triplicate to the cells. Plates were incubated for 72 hours prior to running the luciferase assay. Enzyme activity was measured using a Bright-Glo Kit (cat. number E2620) manufactured by Promega Corporation. The following equation was used to generate a percent control value for each compound. % Control=(Average Compound Value/Average Control)*100
The EC50 value was determined using GraphPad Prism and the following equation: Y=Bottom+(Top-Bottom)/(1+10^((Log IC50−X)*HillSlope))
EC50 values of compounds were repeated several times in the replicon assay.

[2] = biological target: T1, HCV NS5B C316Y mutant (Hepatitis C virus genotype 1b, UniProt Q9WMX2, C2735Y); experiment: Activity against HCV NS5B C316Y mutant; conditions: for EC50: read-out: Inhibiton of HCV NS5B C316Y mutant
T1 construct: HCV NS5B C316Y or S365A mutant as indicated; expressed in transfected cells
Experimental: (§1) The biological activity against HCV 1b, 1a, or 2a is indicated as being *, **, ***, or ****, which corresponds to EC50 ranges of EC50>1000 nM, 100 nM<EC50≦1000 nM, 10 nM<EC50≦100 nM, or EC50≦10 nM, respectively. The biological activity against HCV NS5B C316Y or S365A mutant is indicated as being †, ††, or \\\, which corresponds to EC50 ranges of EC50>1000 nM, 200 nM<EC50≦1000 nM, […], respectively.

[3] = biological target: T2, HCV NS5B S365A mutant (Hepatitis C virus genotype 1b, UniProt Q9WMX2, S2784A); experiment: Activity against HCV NS5B S365A mutant; conditions: for EC50: read-out: Inhibiton of HCV NS5B S365A mutant
T2 construct: HCV NS5B C316Y or S365A mutant as indicated; expressed in transfected cells
Experimental: as §1

[4] = test system: HCV 2a; experiment: HCV 2a replicon assay (similar to the 1b replicon assay); conditions: Hepatitis C virus; cell marked (HCV genotype 2a replicon); read-out: Inhibition of HCV genotype 2a replicon
Experimental: (§2) Compounds of the invention can inhibit multiple genotypes of HCV selected but not limited to 1a, 1b, 2a, 3a, and 4a. The EC50s are measured in the corresponding replicon assays that are similar to HCV 1b replicon assay as described above.
as §1

[5] = test system: HCV 1a; experiment: HCV 1a replicon assay (similar to the 1b replicon assay); conditions: Hepatitis C virus; cell marked (HCV genotype 1a replicon); read-out: Inhibition of HCV genotype 1a replicon
Experimental: as §2, §1

T1 sequence (Q9WMX2 2420-3010 C2735Y): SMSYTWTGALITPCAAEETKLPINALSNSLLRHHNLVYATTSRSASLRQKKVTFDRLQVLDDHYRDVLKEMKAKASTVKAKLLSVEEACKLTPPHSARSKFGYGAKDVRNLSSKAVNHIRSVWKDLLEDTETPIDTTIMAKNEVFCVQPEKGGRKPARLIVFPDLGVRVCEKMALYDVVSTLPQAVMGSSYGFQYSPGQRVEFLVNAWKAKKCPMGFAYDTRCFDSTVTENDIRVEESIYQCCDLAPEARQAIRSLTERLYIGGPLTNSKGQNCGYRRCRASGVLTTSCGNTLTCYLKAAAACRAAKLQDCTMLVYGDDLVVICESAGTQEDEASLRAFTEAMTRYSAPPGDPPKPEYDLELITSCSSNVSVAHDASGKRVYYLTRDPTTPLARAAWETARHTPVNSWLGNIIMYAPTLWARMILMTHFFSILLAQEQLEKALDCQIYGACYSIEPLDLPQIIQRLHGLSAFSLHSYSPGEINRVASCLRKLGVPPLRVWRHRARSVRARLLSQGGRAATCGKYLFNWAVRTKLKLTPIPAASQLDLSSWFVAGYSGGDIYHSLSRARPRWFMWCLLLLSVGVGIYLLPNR
T2 sequence (Q9WMX2 2420-3010 S2784A): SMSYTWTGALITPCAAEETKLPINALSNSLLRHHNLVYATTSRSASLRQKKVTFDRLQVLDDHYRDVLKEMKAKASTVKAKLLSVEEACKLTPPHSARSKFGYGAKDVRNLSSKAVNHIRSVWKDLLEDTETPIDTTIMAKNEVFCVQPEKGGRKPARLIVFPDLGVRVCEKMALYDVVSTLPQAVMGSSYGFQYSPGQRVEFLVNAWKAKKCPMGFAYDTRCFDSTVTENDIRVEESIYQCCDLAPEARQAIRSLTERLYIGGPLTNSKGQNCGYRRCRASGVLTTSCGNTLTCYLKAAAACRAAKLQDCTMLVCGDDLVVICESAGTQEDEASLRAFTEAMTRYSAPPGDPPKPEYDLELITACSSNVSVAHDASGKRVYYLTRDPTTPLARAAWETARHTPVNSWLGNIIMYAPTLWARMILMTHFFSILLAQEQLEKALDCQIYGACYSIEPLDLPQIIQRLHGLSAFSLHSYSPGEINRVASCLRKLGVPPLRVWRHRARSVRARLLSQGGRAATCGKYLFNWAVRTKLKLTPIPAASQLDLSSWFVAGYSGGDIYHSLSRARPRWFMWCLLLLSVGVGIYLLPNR

| Compound | EC50 [3] [nM] | EC50 [4] [nM] | other results |
| --- | --- | --- | --- |
| CNC(=O)c1c(-c2ccc(F)cc2)oc2cc3c(cc12)[C@H](C)OCCN3S(C)(=O)=O [Compound B45] |  |  | EC50 [1]: 3 nM; Inhibiton of HCV NS5B C316Y mutant [2]: †††; Inhibiton of HCV NS5B S365A mutant [3]: ††† |
| CNC(=O)c1c(-c2ccc(F)cc2)oc2cc3c(cc12)[C@H](C)N(C)C(=O)CN3S(C)(=O)=O (single isomer, unassigned) [Compound B179] | 200 to 1000 |  |  |
| CN(C)C(=O)c1c(-c2ccc(F)cc2)oc2cc3c(cc12)CCCCN3S(C)(=O)=O [Compound B14] |  | > 1000 |  |
| CNC(=O)c1c(-c2ccc(F)cc2)nc2cc3c(cn12)C(C)=CCCN3S(C)(=O)=O [Compound B62] |  | > 1000 |  |
| CN(C)CCNC(=O)c1c(-c2ccc(F)cc2)oc2cc3c(cc12)CCCCN3S(C)(=O)=O [Compound B42] |  | > 1000 |  |
| CNC(=O)c1c(-c2ccc(F)cc2)oc2cc3c(cc12)[C@H](C)OC(C)(C)CN3S(C)(=O)=O (single isomer, unassigned) [Compound B184] | 200 to 1000 |  | EC50 [2]: > 1000 nM |
| CNC(=O)c1c(-c2ccc(F)cc2)oc2cc3c(cc12)[C@H](C)CCCN3S(C)(=O)=O (single isomer, unassigned) [Compound B15] |  |  | EC50 [1]: 5.5 nM; Inhibiton of HCV NS5B C316Y mutant [2]: †††; Inhibiton of HCV NS5B S365A mutant [3]: ††† |
| CNC(=O)c1c(-c2ccc(F)cc2)oc2cc3c(cc12)[C@H](C)OC1(CC1)CN3S(C)(=O)=O (single isomer, unassigned) [Compound B193] | 200 to 1000 |  | EC50 [2]: 200 to 1000 nM |
| CS(=O)(=O)N1CCCCc2cc3c(C(=O)NCC#N)c(-c4ccc(F)cc4)oc3cc21 [Compound B43] |  | > 1000 |  |
| CNC(=O)c1c(-c2ccc(Oc3ccc(F)cc3)cc2)oc2cc3c(cc12)[C@H](C)OC1(CC1)CN3S(C)(=O)=O (single isomer, unassigned) [Compound B187] | > 1000 |  | EC50 [2]: > 1000 nM |
| CS(=O)(=O)N1CCCCc2cc3c(-c4ncc[nH]4)c(-c4ccc(F)cc4)oc3cc21 [Compound B67] | 200 to 1000 |  |  |
| CS(=O)(=O)N1CCCCc2cc3c(C(=O)NC4CC4)c(-c4ccc(F)cc4)oc3cc21 [Compound B41] |  | > 1000 |  |
| CNC(=O)c1c(-c2ccc(Oc3ccc(F)cc3)cc2)oc2cc3c(cc12)[C@H](C)OC(C)(C)CN3S(C)(=O)=O (single isomer, unassigned) [Compound B176] | 200 to 1000 |  | EC50 [2]: 200 to 1000 nM |
| CNC(=O)c1c(-c2ccc(F)cc2)oc2cc3c(cc12)[C@@H](C)OCCN3S(C)(=O)=O [Compound B44] |  | 100 to 1000 |  |
| CNC(=O)c1c(-c2ccc(F)cc2)oc2cc3c(cc12)C=CCCN3S(C)(=O)=O [Compound B12] |  | 100 to 1000 |  |
| C=C1CCCCN(S(C)(=O)=O)c2cc3oc(-c4ccc(F)cc4)c(C(=O)NC)c3cc21 [Compound B75] |  | 100 to 1000 |  |
| CC1OCCN(S(C)(=O)=O)c2cc3oc(-c4ccc(F)cc4)c(-c4ncc[nH]4)c3cc21 (stereo not drawn) [Compound B197] | 200 to 1000 |  |  |
| C=C1CCCN(S(C)(=O)=O)c2cc3nc(-c4ccc(F)cc4)c(C(=O)NC)n3cc21 [Compound B61] |  | > 1000 |  |
| CNC(=O)c1c(-c2ccc(F)cc2)oc2cc3c(cc12)/C=C\CCCN3S(C)(=O)=O [Compound B114] |  |  | EC50 [5]: 100 to 1000 nM |
| CS(=O)(=O)N1CCCCc2cc3c(C(N)=O)c(-c4ccc(F)cc4)oc3cc21 [Compound B13] |  | > 1000 |  |
| CC1c2cc3c(-c4ncc[nH]4)c(-c4ccc(F)cc4)oc3cc2N(S(C)(=O)=O)CCN1C (stereo not drawn) [Compound B171] | 200 to 1000 |  |  |
| CNC(=O)c1c(-c2ccc(F)cc2)oc2cc3c(cc12)C(C)N(CCO)CCN3S(C)(=O)=O (stereo not drawn) [Compound B145] | 200 to 1000 |  |  |
